Assay results: patent EP2753335B1, “AN ANTHRACYCLINE FOR THE TREATMENT OF SEPSIS” (Instituto de Medicina Molecular, priority 2011, dated 2013)
Structures can show the parent of a compound that is named as a salt. Starred links: 1 amine or outer side, 2 acyl side, 3 side chain; linkers in the order of their positions; H or OH if unused. Positions of bridges follow the written chain, without caps; N, C: chain ends. Non-standard residues stand in square brackets, D forms with d. Residues, ends and D or L forms follow the SMILES beside them. Chains are numbered I, II in the order given. Actinocin(9to1) = Cc1c2oc3c(C)ccc(C(=O)[*:1])c3nc-2c(C(=O)[*:2])c(N)c1=O; NMeV = CN[C@H](C(=O)O)C(C)C; Sar = CNCC(=O)O

Experiments:
[1] = test system: TNF; test: In vitro chemical screen (Spectrum collection): TNF secretion by E. coli challenged THP-1 cells, DAS-ELISA; type: cell-based, human; conditions: THP-1 cells, 10µM compound for 1 hour, then PFA-fixed E. coli (MOI 20) for 24 hours
Experimental: (§1) We identified 45 leading candidates (Figure 1A and Table I) that inhibited both cytokines.
(§2) THP-1 human monocytes (American Tissue Culture Collection-ATCC TIB-202) were plated in 96 well plates at 10^6 cell/ml and incubated with each one of ∼2320 compounds included in the Spectrum collection (Microsource Discovery Systems, Gaylordsville, CT) at 10µM for 1 hour. Cells were then challenged with 4% PFA-fixed DH5α E.coli at a Multiplicity of Infection (MOI) of 20 bacterial cells per THP-1 cell for an additional 24 hours. The cell supernatants were collected and IL-1β and TNF cytokines quantified by DAS-ELISA, using Human IL-1β/IL-1F2 DuoSet® and Human TNF DuoSet® (R&D Systems ®), respectively, according to company's protocol.
(§3) We generated a working subset of The RNAi Consortium (TRC) shRNA lentiviral vector library ^33,33 that allows for the silencing of most of the genes that are either human kinases or phosphatases. This subset was composed of 1440 individually arrayed lentiviral shRNA vectors targeting ∼700 genes, after selecting the most efficient shRNAs (two on average) based on available silencing efficiency data from the Broad Institute of MIT and Harvard. THP-1 cells were plated in 96 well plates at 10^6 cell/ml and infected with shRNA-expressing lentivirus. 48 hrs later infected cells were selected with puromycin. After the 3 days of selection, plates were duplicated. One of the plates was used to measure the cell number using Alamar Blue® cell viability assay (Invitrogeia®), according to manufacturer's instructions. In the other plate, cells were stimulated with 4% PFA-fixed DH5α E.coli at a Multiplicity of Infection (MOI) of 20 bacterial cells per THP-1 cell. Twenty-four hours after stimulation, cell supernatants were collected and IL-1β and TNF cytokines quantified by DAS-ELISA. All data values from IL-1β and TNF secretion assays were normalized by dividing the amount of IL-1β and TNF in the conditioned media 24, 12, 8, 6, 4 or 2 hrs after E. coli stimulation by the number of cells in each well and then by the average concentration per cell of the plate. Results were logarithmic natural transformed. Scores were sorted in ascending order and graphed. We calculated 1.5 SDEVs above and below the mean to identify the genes that changed IL-1β and TNF secretion when silenced. The same approach was used to identify the compounds that changed IL-1β and TNF secretion. The selected genes were submitted to two or more rounds of phenotypic validation.

[2] = test system: IL-1β; test: In vitro chemical screen (Spectrum collection): IL-1β secretion by E. coli challenged THP-1 cells, DAS-ELISA; type: cell-based, human; conditions: THP-1 cells, 10µM compound for 1 hour, then PFA-fixed E. coli (MOI 20) for 24 hours
Experimental: as §1, §2, §3

Molecule | Z score TNFa [1] | Z score IL1b [2]
CCCCC(=O)O[C@]1(C(=O)CO)CC[C@H]2[C@@H]3CCC4=CC(=O)CC[C@]4(C)[C@H]3[C@@H](O)C[C@@]21C [Hydrocortisone valerate] | -2,794271243 | -2,722889618
CC(C)=CCC[C@]1(C)C=Cc2c(O)c3c(c(CC=C(C)C)c2O1)O[C@]12C(=C[C@@H]4CC1C(C)(C)O[C@@]2(C/C=C(/C)C(N)=O)C4=O)C3=O [Gambogic acid amide] | -3,013926221 | -1,517154207
C=C1C(=O)O[C@@H]2C[C@@]3(C)CCC[C@H](C)C3=C[C@H]12 [Helenine] | -2,683894042 | -0,943744357
Pyrithione zinc | -2,951809549 | -1,872292546
CN(C)c1ccc(C(=C2C=CC(=[N+](C)C)C=C2)c2ccc(N(C)C)cc2)cc1 [Gentian violet] | -2,696385799 | -1,835724332
CC(C)=CCC[C@]1(C)C=Cc2c(O)c3c(c(CC=C(C)C)c2O1)O[C@]12C(=C[C@@H]4C[C@H]1C(C)(C)O[C@@]2(C/C=C(/C)C(=O)O)C4=O)C3=O [Gambogic acid] | -3,862359373 | -1,529656531
Gramicidin | -2,91855912 | -1,84556962
CC(C)=CCCC1(C)C=Cc2c(O)c3c(c(CC=C(C)C)c2O1)OC12C(=CC4CC1C(C)(C)OC2(C/C=C(/C)C(=O)O)C4O)C3=O (stereo not drawn) [Dihydrogambogic acid] | -2,488781431 | -1,48996453
Mepartricin | -2,504992413 | -1,081865327
C=C1C(=O)O[C@@H]2[C@H]3O[C@]3(C)CC/C=C(\C)CC[C@@H]12 [parthenolide] | -2,842267433 | -0,921962794
CC(=O)Oc1c2c(c(CC=C(C)C)c3c1C(=O)C1=C[C@@H]4CC5C(C)(C)OC(C/C=C(\C)C(=O)O)(C4=O)[C@@]15O3)OC(C)(CCC=C(C)C)C=C2 (stereo partly drawn) [Acetyl isogambogic acid] | -3,056795183 | -1,48116787
O=C1c2c(O)ccc(O)c2C(=O)c2c(NCCNCCO)ccc(NCCNCCO)c21 [Mitoxanthrone hydrochloride] | -2,562729474 | -1,158920135
Cc1cc(/C=C/c2ccc3cc(N(C)C)ccc3[n+]2C)c(C)n1-c1ccccc1 [Pyrvinium pamoate] | -2,268148981 | -1,683811286
S=C=NCc1ccccc1 [Benzyl isothiocyanate] | -2,908582737 | -1,034306584
CC(=O)OCC(=O)[C@@]1(O)[C@@H](C)C[C@H]2[C@@H]3CCC4=CC(=O)C=C[C@]4(C)[C@@]3(F)[C@@H](O)C[C@@]21C [Betamethasone acetate] | -2,560814606 | -0,950513609
Cc1c(O)c(O)cc2c1CC=C1[C@@]2(C)CC[C@@]2(C)[C@@H]3C[C@](C)(C(=O)O)CC[C@]3(C)CC[C@]12C [Dihydrocelastrol] | -3,387513735 | -1,102010407
C[C@H]1CC[C@]2(NC1)O[C@H]1C[C@H]3[C@@H]4CC[C@H]5C[C@@H](O[C@@H]6O[C@H](CO)[C@H](O[C@@H]7O[C@H](CO)[C@@H](O)[C@H](O[C@@H]8OC[C@@H](O)[C@H](O)[C@H]8O)[C@H]7O[C@@H]7O[C@H](CO)[C@@H](O)[C@H](O)[C@H]7O)[C@H](O)[C@H]6O)CC[C@]5(C)[C@H]4CC[C@]3(C)[C@H]1[C@@H]2C [Tomatine] | -4,440219344 | -2,626087357
Cc1c2oc3c(C)ccc(C(=O)N[C@@H]4C(=O)N[C@H](C(C)C)C(=O)N5CCC[C@H]5C(=O)N(C)CC(=O)N(C)[C@@H](C(C)C)C(=O)O[C@@H]4C)c3nc-2c(C(=O)N[C@@H]2C(=O)N[C@H](C(C)C)C(=O)N3CCC[C@H]3C(=O)N(C)CC(=O)N(C)[C@@H](C(C)C)C(=O)O[C@@H]2C)c(N)c1=O [Dactinomycin] (I: T[dV]P[Sar][NMeV] / II: T[dV]P[Sar][NMeV]; ester I:1-I:C, II:1-II:C; linker I:N-II:N via Actinocin(9to1)) | -4,13760156 | -1,187827575

Molecule | Z score TNFa [1] | Z score IL1b [2]
CC(C)=CC1C(C(=O)OCc2cccc(Oc3ccccc3)c2)C1(C)C (stereo not drawn) [Phenothrin] | -2,810792588 | -0,983918754
C=C1C(=O)O[C@H]2C[C@@H]1C(OC(C)=O)C/C(C)=C/CC/C(C)=C/CC[C@@]2(C)O (stereo partly drawn) [Crassin acetate] | -4,448741528 | -2,126298968
CS(=O)(=O)CCCCN=C=S [Erysolin] | -4,442389411 | -1,162701697
CC1=C(O)C(=O)C=C2C1=CC=C1[C@@]2(C)CC[C@@]2(C)[C@@H]3C[C@](C)(C(=O)O)CC[C@]3(C)CC[C@]12C [Celastrol] | -2,941287145 | -1,499560887
CCCCCCc1ccc(O)cc1O.Nc1c2ccccc2nc2ccccc12 [Acrisorcin] | -3,10607388 | -0,959612692
C[C@H](NCCc1ccc(O)cc1)[C@H](O)c1ccc(O)cc1 (racemic) [Ritodrine hydrochloriide] | -2,149761571 | -1,268303571
C[C@]12C=CC(=O)C=C1CC[C@@H]1[C@@H]2[C@@H](O)C[C@@]2(C)[C@H]1CC[C@]2(O)C(=O)COC(=O)CCC(=O)O [Prednisolone hemisuccinate] | -2,72427413 | -2,095888301
CC[C@@]1(O)C[C@H](O[C@H]2C[C@H](N(C)C)[C@H](O)[C@H](C)O2)c2c(cc3c(c2O)C(=O)c2c(O)ccc(O)c2C3=O)[C@H]1C(=O)OC [Pyrromycin] | -2,980583694 | -1,456377283
COC1=CC(=O)C(O)=C/C1=C\C=C\c1ccccc1 [Obtusaquinone] | -3,829374842 | -1,532189516
CC1(C)O[C@@H]2C[C@H]3[C@@H]4CCC5=CC(=O)C=C[C@]5(C)[C@H]4[C@@H](O)C[C@]3(C)[C@]2(C(=O)CO)O1 [Desonide] | -2,297715909 | -0,945977097
CC1(C)C(=O)C=C[C@@]2(C)C1=C(O)C(=O)[C@]1(C)[C@@H]2CC[C@@]2(C)[C@H](c3ccoc3)C[C@H]3O[C@]321 [Cedrelone] | -2,817231786 | -1,852572153
C[C@@H]1C[C@H]2[C@@H]3CCC4=CC(=O)C=C[C@]4(C)[C@@]3(F)[C@@H](O)C[C@]2(C)[C@H]1C(=O)CO [Desoxymetasone] | -2,417754689 | -0,995122645
C[n+]1cc2c3c(ccc2c2ccc4cc5c(cc4c21)OCO5)OCO3 [Sanguinarine sulfate] | -2,651620816 | -1,160017114
COC(=O)[C@]1(C)CC[C@]2(C)CC[C@]3(C)C4=CC=C5C(=CC(=O)C(O)=C5C)[C@]4(C)CC[C@@]3(C)[C@@H]2C1 [Pristimerin] | -3,474946679 | -0,952562058
CCOc1ccc2nc3cc(N)ccc3c(N)c2c1 [Ethacridine lactate] | -2,218841761 | -1,389229184
CC1(C)C(=O)C=C[C@]2(C)[C@H]3CC[C@@]4(C)[C@H](c5ccoc5)OC(=O)[C@H]5O[C@]54[C@]3(C)C=C[C@@H]12 [7-desacetoxy-6,7-dehydrogedunin] | -2,517707805 | -1,789647817
CCCCC(CC)CNC(=N)NC(=N)NCCCCCCNC(=N)NC(=N)NCC(CC)CCCC (stereo not drawn) [Alexidine hydrochloride] | -2,648173863 | –
